Test system: human patients suffering from relapsing multiple sclerosis (RMS)
Test: Phase II RMS study: brain MRI (Gd+ T1 lesions, T2 lesions)
Type: in vivo
Parameters: key to Gd+ T1 lesion rate (subject level), Median / Gd+ T1 Lesion rate, adjusted (negative binomial model): number of Gd+ T1 lesions per scan
Conditions: for New or enlarging T2 lesion rate (subject level), Mean ± SD: Weeks 12-24; for Difference in LS means of CFB in cube root of volume of T2 lesions vs placebo: week 24, MMRM
Procedure: The assessing Investigator and central MRI reader were treatment blinded.
The protocol specified that subjects self-administered the IMP at a set time each day (every 12 hours ±2 hours). Subjects were to take their daily dose more than 1 hour prior to a meal or snack and more than 2 hours after a meal or snack. Clear fluids were allowed at any time. On trial visit days, the IMP was to be administered during the trial visit after the scheduled trial visit procedures (other than post-treatment PK/PD sampling) are completed.
Stratification occurred by region (USA or Western Europe, Eastern Europe and BTKO capable, Eastern Europe and not BTKO capable, and RoW). For the first 7 days, Tecfidera was administered orally at 120 mg twice daily. Following this and for the duration of treatment, Tecfidera was administered orally at 240 mg twice daily.
The protocol specified that MRI scans were to be performed at Screening, at 4-week intervals from Week 12 to 24, and at the End of Treatment Visit at Week 48 (including for subjects receiving Tecfidera who choose to enter the OLE Period). […] If a subject discontinued the study more than 4 weeks after his or her most recent MRI, the protocol specified that an MRI may be obtained at the 4-week Safety Follow-up Visit. The Screening MRI scan was to be acquired before randomization and dosing to allow for the readouts to be read by the central MRI reader (approximately 7 days).
Gadolinium was used to enhance T1-weighted lesions and to optimize clarity and accuracy of reporting. As gadolinium is excreted renally, subjects with acute renal insufficiency (eGFR <45 mL/min/1.73 m^2) will be excluded from the trial.
The protocol specified that brain MRI scans were performed according to a standardized imaging protocol before and after the administration of single-dose gadolinium. Images were assessed and reported by an independent, blinded, centralized MRI reading service, provided by NeuroRx Research. The assessment was performed in the absence of clinical information. Further details, including the scans required and the optimal MRI workflow, were provided in a separate Imaging Manual provided to each trial site by NeuroRx Research. All MRI images were reviewed and reported locally by a radiologist for safety. The local report was to contain only non-MS pathology and was to be provided to the Treating Investigator.
The primary endpoint was the total number of gadolinium-enhancing T1 lesions at Week 12, 16, 20, and 24. The primary analysis was a comparison of each evobrutinib dose arm versus placebo based on this endpoint, with a supportive test for dose-response. Secondary Endpoints
Other covariates were permitted to be considered. […] Descriptive statistics for the total number of Gd+ T1 lesions, at Week 12, 16, 20, and 24, are provided for each treatment group.
Estimation of mean per-scan number of Gd+ T1 lesions at Weeks 12, 16, 20, and 24, for each treatment group, was based on the NB model. In the analysis of each secondary endpoint, other covariates were permitted to be included in the model.
Primary and secondary efficacy endpoints were analysed based on the modified intention-to-treat (mITT) analysis set, consisting of all randomized patients with at least one available baseline and one post-baseline MRI assessment. […] For each endpoint, rate ratio (RR; null-hypothesis RR=1.0) adjusted for baseline disease activity was reported together with associated 95% CI and p-value. The T2 lesion endpoint was analysed similarly. Dose-response relationships between evobrutinib treatment dose and primary and key secondary endpoints were assessed for linear and monotonic trend. The analysis of CFB in cube root of volume of T2 lesions at Week 24 was based on a mixed-effect model for repeated measures, with fixed effects for treatment, week of visit, and treatment-by-week interaction, random effect for subject, and adjustment for baseline cube root of lesion volume. CFB in SF-36 score at Week 24 was analysed similarly. […]

[1] = 25 mg QD, listed as evobrutinib
[2] = 75 mg BID, listed as evobrutinib

In the case of `C=CC(=O)N1CCC(CNc2ncnc(N)c2-c2ccc(Oc3ccccc3)cc2)CC1` [Evobrutinib, 1-(4-(((6-amino-5-(4-phenoxyphenyl)pyrimidin-4-yl)amino)methyl)piperidin-1-yl)prop-2-en-1-one], the “Change in volume of T2 lesions from baseline to week 24, Mean ± SD” value (shortened to “Change in volume of T2 lesions … Mean ± SD”) (25 mg QD) is reported as 0.93 ± 1.85 cc, the “Change in volume of T2 lesions from baseline to week 24, Median” value (“Change in volume of T2 lesions … Median” below) (25 mg QD) is reported as 0.05 cc and the “Gd+ T1 Lesion rate, adjusted (negative binomial model)” value (from here on “Gd+ T1 Lesion rate, adjusted”) (25 mg QD) is reported as 1.09. For the same compound, the “Gd+ T1 lesion rate (subject level), Median” value (“Gd+ T1 lesion rate … Median” for short) (25 mg QD) was 0.25, the “Gd+ T1 lesion rate (subject level; count per scan, weeks 12-24), Mean ± SD” value (25 mg QD) was 1.31 ± 3.13 and the “Total Number of New or Enlarging T2 Lesions at Week 24, Mean ± SD” value (from here on “Total Number … at Week 24, Mean ± SD”) (25 mg QD) was 6.52 ± 11.57. For the same compound, the “Total number of Gd+ T1 lesions at Weeks 12, 16, 20, 24, Mean ± SD” value (shortened to “Total number of Gd+ T1 lesions … Mean ± SD”) (25 mg QD) was 5.23 ± 12.52, the “Total number of Gd+ T1 lesions at Weeks 12, 16, 20, 24, Median (min-max)” value (from here on “Total number of Gd+ T1 lesions … (min-max)”) (25 mg QD) was 1 (0-76) and the “New or enlarging T2 lesion rate (subject level), Mean ± SD” value (25 mg QD) was 2.08 ± 4.19. For the same compound, the “Difference in LS means of CFB in cube root of volume of T2 lesions vs placebo” value (shortened to “Difference in LS means of CFB”) (25 mg QD) was 0.05 cm, the “Change in volume of T2 lesions … Median” value [1] was “increased” and the “Gd+ T1 lesion rate (subject level; count per scan, weeks 12-24), Mean ± SD” value [1] was 1.31±3.13. For the same compound, the “Change in volume of T2 lesions … Mean ± SD” value (75 mg BID) was 0.06 ± 0.50 cc, the “Change in volume of T2 lesions … Median” value (75 mg BID) was −0.02 cc and the “Gd+ T1 Lesion rate, adjusted” value (75 mg BID) was 0.34. The “Gd+ T1 lesion rate … Median” value (75 mg BID) was 0.0, the “Gd+ T1 lesion rate (subject level; count per scan, weeks 12-24), Mean ± SD” value (75 mg BID) was 0.35 ± 0.96 and the “Total Number … at Week 24, Mean ± SD” value (75 mg BID) was 2.26 ± 4.72. For the same compound, the “Total number of Gd+ T1 lesions … Mean ± SD” value (75 mg BID) was 1.39 ± 3.85, the “Total number of Gd+ T1 lesions … (min-max)” value (75 mg BID) was 0 (0-25) and the “New or enlarging T2 lesion rate (subject level), Mean ± SD” value (75 mg BID) was 0.73 ± 1.57. For the same compound, the “New or enlarging T2 lesion rate (subject level), Mean ± SD” value [2] was 0.73±1.57, the “Difference in LS means of CFB” value (75 mg BID) was −0.35 cm and the “Gd+ T1 lesion rate (subject level; count per scan, weeks 12-24), Mean ± SD” value [2] was 0.35±0.96. For the same compound, the “Change in volume of T2 lesions … Mean ± SD” value (75 mg QD) was 0.01 ± 0.57 cc, the “Change in volume of T2 lesions … Median” value (75 mg QD) was −0.01 cc and the “Gd+ T1 Lesion rate, adjusted” value (75 mg QD) was 0.27. For the same compound, the “Gd+ T1 lesion rate … Median” value (75 mg QD) was 0.0, the “Gd+ T1 lesion rate (subject level; count per scan, weeks 12-24), Mean ± SD” value (75 mg QD) was 0.42 ± 1.17 and the “Total Number … at Week 24, Mean ± SD” value (75 mg QD) was 3.57 ± 10.82. For the same compound, the “Total number of Gd+ T1 lesions … Mean ± SD” value (75 mg QD) was 1.69 ± 4.69, the “Total number of Gd+ T1 lesions … (min-max)” value (75 mg QD) was 0 (0-27) and the “Total number of Gd+ T1 lesions versus placebo” value (75 mg QD and 75 mg BID, Weeks 12, 16, 20 and 24) was “significantly reduced Gd+ T1 lesions versus placebo”. For the same compound, the “New or enlarging T2 lesion rate (subject level), Mean ± SD” value (75 mg QD) was 0.89 ± 2.71, the “Difference in LS means of CFB” value (75 mg QD) was −0.35 cm and the “Gd+ T1 lesion rate (subject level; count per scan, weeks 12-24), Mean ± SD” value (75 mg QD, listed as evobrutinib) was 0.42±1.17. The “Total Gd+ T1 lesions over 4 scans in an outlier patient” value (one patient, 25 mg QD) was 76 and the “Dose response of Gd+ T1 lesion count” value (weeks 12-24, p<0.01) was “significant dose response was observed”.

Source: patent US12251382B2, “Substituted amino-pyrimidine compound for use in a method for treatment and prevention of multiple sclerosis” (Merck Patent GmbH, priority 2018, dated 2025)
